{"source": "paper PMC11154727", "about": "“Systematic Studies on the Anti-SARS-CoV-2 Mechanisms of Tea Polyphenol-Related Natural Products” (ACS Omega, 2024)", "key": {"[1]": {"biological_target": "T1, RBD/ACE2 interaction (UniProt P0DTC2+Q9BYF1, L452R/T478K)", "conditions": "read-out: IC50 RBD/ACE2"}, "[2]": {"test_system": "UK B.1.1.7 N501Y Alpha SARS-CoV-2", "type": "cell-based", "conditions": "read-out: EC50 α strain"}, "[3]": {"test_system": "Brazil P.1 Gamma mutant SARS-CoV-2", "type": "cell-based", "conditions": "read-out: EC50 γ strain"}, "[4]": {"biological_target": "T1, RBD/ACE2 interaction", "experiment": "cell-based"}}, "note": "Where two headings read alike, the source gives them in different places."}
{"molecule": "proanthocyanidin", "values": [{"measurement": "IC50", "setting": "[1]", "result": "12.4 ± 1.1", "unit": "µM"}]}
{"molecule": "O=C(O[C@@H]1Cc2c(O)cc(O)cc2O[C@@H]1c1cc(O)c(=O)c2c(O)c(O)cc([C@H]3Oc4cc(O)cc(O)c4C[C@H]3OC(=O)c3cc(O)c(O)c(O)c3)c2c1)c1cc(O)c(O)c(O)c1", "note": "[TF3, theaflavin-3,3′-digallate]", "values": [{"measurement": "EC50", "setting": "[2]", "result": 0.5, "unit": "µM"}, {"measurement": "EC50", "setting": "[3]", "result": "0.4 ± 0.2", "unit": "µM"}]}
{"molecule": "O=c1c(O)cc([C@H]2Oc3cc(O)cc(O)c3C[C@H]2O)cc2c([C@H]3Oc4cc(O)cc(O)c4C[C@H]3O)cc(O)c(O)c12", "note": "[theaflavin]", "values": [{"measurement": "IC50", "setting": "[4]", "result": "12.3 ± 1.1", "unit": "µM"}]}
